Experimental data taken from PubChem BioAssay AID248 (DTP/NCI, 2004).
Where “and” joins values, the source holds several entries; their conditions need not be identical. Equal entries are not always repeated. Toxic doses and inconclusive results are not listed. Rule as the data show it: active = T/C of 150% or more; inactive = T/C below 125%.

System: L1210 leukemia ip in BDF1 mice, survival T/C
Experiment: NCI In Vivo Anticancer Drug Screen. Data for tumor model L1210 Leukemia (intraperitoneal) in B6D2F1 (BDF1) mice
Conditions: endpoint: mean survival time, higher = longer survival
Outline: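 Mice bearing the transplanted tumor received compound or vehicle. Survival of the treated group was divided by that of the vehicle-treated control group to give the ratio.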

[1] = dose: 100.0 mg/kg/injection, schedule: Q04DX003 (ip), vehicle: saline with Tween-80
[2] = dose: 200.0 mg/kg/injection, schedule: Q04DX003 (ip), vehicle: saline with Tween-80
[3] = dose: 400.0 mg/kg/injection, schedule: Q04DX003 (ip), vehicle: saline with Tween-80
[4] = dose: 100.0 mg/kg/injection, schedule: Q04DX003 (ip), vehicle: Klucel (hydroxypropylcellulose) (HPC)
[5] = dose: 200.0 mg/kg/injection, schedule: Q04DX003 (ip), vehicle: Klucel (hydroxypropylcellulose) (HPC)
[6] = dose: 100.0 mg/kg/injection, schedule: Q04DX003 (ip), vehicle: saline
[7] = dose: 200.0 mg/kg/injection, schedule: Q04DX003 (ip), vehicle: saline
[8] = dose: 100.0 mg/kg/injection, schedule: Q01DX001 (ip), vehicle: carboxymethylcellulose (CMC)
[9] = dose: 100.0 mg/kg/injection, schedule: Q01DX009 (ip), vehicle: Klucel (hydroxypropylcellulose) (HPC)
[10] = dose: 200.0 mg/kg/injection, schedule: Q01DX001 (ip), vehicle: carboxymethylcellulose (CMC)
[11] = dose: 200.0 mg/kg/injection, schedule: Q01DX009 (ip), vehicle: Klucel (hydroxypropylcellulose) (HPC)
[12] = dose: 400.0 mg/kg/injection, schedule: Q01DX001 (ip), vehicle: carboxymethylcellulose (CMC)
[13] = dose: 400.0 mg/kg/injection, schedule: Q01DX009 (ip), vehicle: Klucel (hydroxypropylcellulose) (HPC)
[14] = dose: 100.0 mg/kg/injection, schedule: Q01DX009 (ip), vehicle: saline with Tween-80
[15] = dose: 200.0 mg/kg/injection, schedule: Q01DX009 (ip), vehicle: saline with Tween-80
[16] = dose: 50.0 mg/kg/injection, schedule: Q04DX003 (ip), vehicle: saline

Measured: T/C

NC(=O)C1=CN(Cc2ccccc2)C=CC1
inactive: [1] 100 % of control | [2] 106 % of control | [3] 94 % of control

COCC1C2CC(=O)OC2C(I)C1OC(=O)c1ccc(-c2ccccc2)cc1 (stereo unspecified)
inactive: [4] 100 % of control | [5] 104 % of control | dose: 400.0 mg/kg/injection, schedule: Q04DX003 (ip), vehicle: Klucel (hydroxypropylcellulose) (HPC) 91 % of control

N#CCC1=Cc2ccccc2CC1
inactive: dose: 6.25 mg/kg/injection, schedule: Q01DX005 (ip), vehicle: saline 109 % of control | dose: 12.5 mg/kg/injection, schedule: Q01DX005 (ip), vehicle: saline 102 % of control | dose: 25.0 mg/kg/injection, schedule: Q01DX005 (ip), vehicle: saline 102 % of control | dose: 50.0 mg/kg/injection, schedule: Q01DX005 (ip), vehicle: saline 106 % of control and 107 % of control

C1CN(CSCN2CCOCC2)CCO1
inactive: [6] 106 % of control | [7] 97 % of control | dose: 400.0 mg/kg/injection, schedule: Q04DX003 (ip), vehicle: saline 97 % of control

O=C(OC1COC(n2c(=O)oc3ccc(F)cc32)C(OC(=O)c2ccccc2)C1OC(=O)c1ccccc1)c1ccccc1 (stereo unspecified)
inactive: [8] 91 % of control | [9] 94 % of control | [10] 89 % of control | [11] 89 % of control | [12] 89 % of control | [13] 87 % of control

Cc1ccc(N=NN(C)CC#N)cc1
inactive: dose: 25.0 mg/kg/injection, schedule: Q04DX003 (ip), vehicle: other 96 % of control | dose: 50.0 mg/kg/injection, schedule: Q04DX003 (ip), vehicle: other 96 % of control | dose: 100.0 mg/kg/injection, schedule: Q04DX003 (ip), vehicle: other 93 % of control and 105 % of control

Cc1cc([N+](=O)[O-])c(NCCOC(=O)c2ccc([N+](=O)[O-])cc2)c([N+](=O)[O-])c1
inactive: [9] 106 % of control | [11] 112 % of control | [13] 98 % of control

O=C(/C=C\c1ccccc1[N+](=O)[O-])C(=O)/C=C/c1ccccc1[N+](=O)[O-]
inactive: dose: 100.0 mg/kg/injection, schedule: Q01DX001 (ip), vehicle: Klucel (hydroxypropylcellulose) (HPC) 93 % of control | dose: 200.0 mg/kg/injection, schedule: Q01DX001 (ip), vehicle: Klucel (hydroxypropylcellulose) (HPC) 92 % of control | dose: 400.0 mg/kg/injection, schedule: Q01DX001 (ip), vehicle: Klucel (hydroxypropylcellulose) (HPC) 88 % of control

O=C1CCc2c1cc(O)c1ccc(S(=O)(=O)O)cc21
inactive: dose: 5.0 mg/kg/injection, schedule: Q01DX001 (ip), vehicle: saline 104 % of control | dose: 10.0 mg/kg/injection, schedule: Q01DX001 (ip), vehicle: saline 106 % of control | dose: 20.0 mg/kg/injection, schedule: Q01DX001 (ip), vehicle: saline 104 % of control | dose: 40.0 mg/kg/injection, schedule: Q01DX001 (ip), vehicle: saline 102 % of control

COc1cc(Cl)ccc1NC(=O)COc1ccc(Cl)cc1
inactive: [14] 92 % of control | [15] 92 % of control | dose: 400.0 mg/kg/injection, schedule: Q01DX009 (ip), vehicle: saline with Tween-80 86 % of control

Nc1cc(F)c2c(c1)C(=O)c1cc(F)ccc1-2
inactive: dose: 50.0 mg/kg/injection, schedule: Q01DX001 (ip), vehicle: carboxymethylcellulose (CMC) 93 % of control | dose: 50.0 mg/kg/injection, schedule: Q04DX003 (ip), vehicle: Klucel (hydroxypropylcellulose) (HPC) 96 % of control | [8] 95 % of control | [4] 96 % of control | [10] 95 % of control | [5] 98 % of control | [12] 95 % of control

N#Cc1cccc(C(=O)Cl)c1
inactive: dose: 25.0 mg/kg/injection, schedule: Q01DX009 (ip), vehicle: carboxymethylcellulose (CMC) 95 % of control and 96 % of control | dose: 50.0 mg/kg/injection, schedule: Q01DX009 (ip), vehicle: carboxymethylcellulose (CMC) 100 % of control and 89 % of control | [8] 92 % of control | dose: 100.0 mg/kg/injection, schedule: Q01DX009 (ip), vehicle: carboxymethylcellulose (CMC) 92 % of control and 95 % of control and 96 % of control | dose: 100.0 mg/kg/injection, schedule: Q04DX002 (ip), vehicle: carboxymethylcellulose (CMC) 95 % of control and 89 % of control | dose: 100.0 mg/kg/injection, schedule: Q04DX003 (ip), vehicle: carboxymethylcellulose (CMC) 96 % of control and 100 % of control | [10] 92 % of control and 98 % of control | dose: 200.0 mg/kg/injection, schedule: Q04DX002 (ip), vehicle: carboxymethylcellulose (CMC) 95 % of control | dose: 200.0 mg/kg/injection, schedule: Q04DX003 (ip), vehicle: carboxymethylcellulose (CMC) 96 % of control and 100 % of control | dose: 400.0 mg/kg/injection, schedule: Q04DX003 (ip), vehicle: carboxymethylcellulose (CMC) 91 % of control

CC1CC1C(N)=O (stereo unspecified)
inactive: dose: 100.0 mg/kg/injection, schedule: Q04DX002 (ip), vehicle: saline 97 % of control | dose: 200.0 mg/kg/injection, schedule: Q04DX002 (ip), vehicle: saline 110 % of control

CCCCNC(C)(C)CO
inactive: dose: 12.5 mg/kg/injection, schedule: Q01DX009 (ip), vehicle: saline 106 % of control | dose: 12.5 mg/kg/injection, schedule: Q04DX003 (ip), vehicle: saline 100 % of control | dose: 25.0 mg/kg/injection, schedule: Q01DX009 (ip), vehicle: saline 112 % of control | dose: 25.0 mg/kg/injection, schedule: Q04DX003 (ip), vehicle: saline 97 % of control | dose: 50.0 mg/kg/injection, schedule: Q01DX009 (ip), vehicle: saline 109 % of control | [16] 102 % of control | dose: 75.0 mg/kg/injection, schedule: Q01DX009 (ip), vehicle: saline 105 % of control

N#C[C@@H]1C2C=CC(CC2)[C@H]1C#N
inactive: dose: 0.5 mg/kg/injection, schedule: Q03HX024 (ip), vehicle: gum acacia 106 % of control | dose: 0.7 mg/kg/injection, schedule: Q03HX024 (ip), vehicle: gum acacia 106 % of control | dose: 1.1 mg/kg/injection, schedule: Q03HX024 (ip), vehicle: gum acacia 106 % of control | dose: 1.6 mg/kg/injection, schedule: Q03HX024 (ip), vehicle: gum acacia 102 % of control | dose: 2.4 mg/kg/injection, schedule: Q01DX009 (ip), vehicle: gum acacia 104 % of control | dose: 2.4 mg/kg/injection, schedule: Q03HX024 (ip), vehicle: gum acacia 103 % of control | dose: 3.6 mg/kg/injection, schedule: Q01DX009 (ip), vehicle: gum acacia 102 % of control | dose: 5.0 mg/kg/injection, schedule: Q01DX001 (ip), vehicle: gum acacia 103 % of control | dose: 5.0 mg/kg/injection, schedule: Q04DX003 (ip), vehicle: gum acacia 97 % of control | dose: 7.0 mg/kg/injection, schedule: Q01DX001 (ip), vehicle: gum acacia 101 % of control | dose: 7.0 mg/kg/injection, schedule: Q04DX003 (ip), vehicle: gum acacia 97 % of control | dose: 11.0 mg/kg/injection, schedule: Q01DX001 (ip), vehicle: gum acacia 100 % of control | dose: 11.0 mg/kg/injection, schedule: Q04DX003 (ip), vehicle: gum acacia 92 % of control

CCC/C=C/CCCCCC
inactive: dose: 50.0 mg/kg/injection, schedule: Q01DX009 (ip), vehicle: saline with Tween-80 93 % of control | [14] 93 % of control | [15] 104 % of control

CCCCCC[Si]CCCCCC
inactive: dose: 100.0 mg/kg/injection, schedule: Q01DX001 (ip), vehicle: saline with Tween-80 94 % of control | dose: 200.0 mg/kg/injection, schedule: Q01DX001 (ip), vehicle: saline with Tween-80 100 % of control | dose: 400.0 mg/kg/injection, schedule: Q01DX001 (ip), vehicle: saline with Tween-80 94 % of control

CCOC(COC(=O)c1ccccc1C(=O)O)c1ccccc1 (stereo unspecified)
inactive: [1] 94 % of control | [2] 97 % of control | [3] 92 % of control

O=[N+]([O-])c1ccc(N/N=C(/Cl)c2ccccc2)cc1
inactive: [16] 101 % of control | [6] 98 % of control | [7] 96 % of control
